From patent US11629139B2 (priority 2017, dated 2023)

Tested on: vesicular stomatitis virus particles (VSV) pseudotyped with EboV Zaire GP
Assay: microbe, parasite or virus in culture
Assay type: cell-based
Settings: Vesicular stomatitis virus

| SMILES | IC50 [nM] |
| --- | --- |
| O=C(CC12CC3CC(CC(C3)C1)C2)NCC(=O)N1CCN(Cc2cc(Br)ccc2O)CC1 [Compound 1026] | 300 to 500 |
| COC(=O)c1ccc(COc2ccc(Br)cc2CN2CCN(C(=O)CNC(=O)CC34CC5CC(CC(C5)C3)C4)CC2)cc1 [Compound 1111] | 13 |
| COC(=O)c1ccc(COc2ccc(F)cc2CN2CCN(C(=O)CNC(=O)CC34CC5CC(CC(C5)C3)C4)CC2)cc1 [Compound 1112] | < 2000 |
| COC(=O)c1ccc(COc2ccc([N+](=O)[O-])cc2CN2CCN(C(=O)CNC(=O)CC34CC5CC(CC(C5)C3)C4)CC2)cc1 [Compound 1113] | < 2000 |
| COC(=O)c1ccc(COc2ccc(C)cc2CN2CCN(C(=O)CNC(=O)CC34CC5CC(CC(C5)C3)C4)CC2)cc1 [Compound 1114] | < 2000 |
| COC(=O)c1ccc(COc2ccc(OC)cc2CN2CCN(C(=O)CNC(=O)CC34CC5CC(CC(C5)C3)C4)CC2)cc1 [Compound 1115] | 1400 |
| COC(=O)c1ccc(COc2ccc(C#N)cc2CN2CCN(C(=O)CNC(=O)CC34CC5CC(CC(C5)C3)C4)CC2)cc1 [Compound 1117] | 50 |
| COC(=O)c1ccc(COc2ccc(Cl)cc2CN2CCN(C(=O)CNC(=O)CC34CC5CC(CC(C5)C3)C4)CC2)cc1 [Compound 1118] | 1 |
| COC(=O)c1ccc(COc2ccccc2C(C)N2CCN(C(=O)CNC(=O)CC34CC5CC(CC(C5)C3)C4)CC2)cc1 (centres unmarked) [Compound 1122] | ~2000 |
| COC(=O)c1ccc(CCc2ccccc2CN2CCN(C(=O)CNC(=O)CC34CC5CC(CC(C5)C3)C4)CC2)cc1 [Compound 1123] | 20 |
| O=C(Cc1cccc2ccccc12)NCC(=O)N1CCN(Cc2ccccc2OCc2ccc(Br)cc2)CC1 [Compound 1136] | > 2000 |
| CC(C)(CC(=O)NCC(=O)N1CCN(Cc2ccccc2OCc2ccc(Br)cc2)CC1)C1CCCCC1 [Compound 1138] | > 2000 |
| O=C(CC12CC3CC(C1)CC(c1ccccc1)(C3)C2)NCC(=O)N1CCN(Cc2ccccc2OCc2ccc(Br)cc2)CC1 [Compound 1141] | 700 |
| CC1(CC(=O)NCC(=O)N2CCN(Cc3ccccc3OCc3ccc(Br)cc3)CC2)CCCCC1 [Compound 1142] | 520 |
| O=C(CC12CC3CC(CC(Cl)(C3)C1)C2)NCC(=O)N1CCN(Cc2ccccc2OCc2ccc(Br)cc2)CC1 [Compound 1243] | 500 |
| O=C(CC12CC3CC(CC(O)(C3)C1)C2)NCC(=O)N1CCN(Cc2ccccc2OCc2ccc(Br)cc2)CC1 [Compound 1244] | 500 |
| O=C(CC12CC3CC(CC(Br)(C3)C1)C2)NCC(=O)N1CCN(Cc2ccccc2OCc2ccc(Br)cc2)CC1 [Compound 1245] | 600 |
| O=C(CC12CC3CC(C1)CC(n1cncn1)(C3)C2)NCC(=O)N1CCN(Cc2ccccc2OCc2ccc(Br)cc2)CC1 [Compound 1246] | < 2000 |
| O=C(CC12CC3CC(CC(C3)C1)C2)NCC(=O)N1CCN(Cc2cc(Cl)ccc2O)CC1 [Compound 1249, 2-((1R,3R,5S)-Adamantan-1-yl)-N-(2-(4-(5-chloro-2-hydroxybenzyl)piperazin-1-yl)-2-oxoethyl)acetamide] | 200 |

| SMILES | IC50 [nM] |
| --- | --- |
| Nc1ccc(CN2CCN(C(=O)CNC(=O)CC34CC5CC(CC(C5)C3)C4)CC2)cc1Cl [Compound 1250] | 800 |
| CN(C)c1ccc(CN2CCN(C(=O)CNC(=O)CC34CC5CC(CC(C5)C3)C4)CC2)cc1Cl [Compound 1251] | 1700 |
| Nc1cc(OCc2ccc(Br)cc2)c(CN2CCN(C(=O)CNC(=O)CC34CC5CC(CC(C5)C3)C4)CC2)cc1Cl [Compound 1252] | 800 |
| COC(=O)c1ccc(/C=C/c2ccccc2CN2CCN(C(=O)CNC(=O)CC34CC5CC(CC(C5)C3)C4)CC2)cc1 [Compound 1253] | 1500 |
| O=C(CNC(=O)C12CC3(F)CC(F)(CC(F)(C3)C1)C2)N1CCN(Cc2ccccc2OCc2ccc(Br)cc2)CC1 [Compound 1255] | 400 |
| CNS(=O)(=O)c1ccc(COc2ccccc2CN2CCN(C(=O)CNC(=O)CC34CC5CC(CC(C5)C3)C4)CC2)cc1 [Compound 1257] | 300 |
| CN(C)S(=O)(=O)c1ccc(COc2ccccc2CN2CCN(C(=O)CNC(=O)CC34CC5CC(CC(C5)C3)C4)CC2)cc1 [Compound 1258] | 400 |
| N#Cc1ccc(COc2ccccc2CN2CCN(C(=O)CNC(=O)CC34CC5CC(CC(C5)C3)C4)CC2)cc1 [Compound 1259] | 700 |
| NC(=O)c1ccc(COc2ccccc2CN2CCN(C(=O)CNC(=O)CC34CC5CC(CC(C5)C3)C4)CC2)cc1 [Compound 1260] | 700 |
| COC(=O)c1ccc(COc2ccccc2CN2CCN(C(=O)CNC(=O)CC3CCC(F)(F)CC3)CC2)cc1 [Compound 1275, Methyl 4-((2-((4-((2-(4,4-difluorocyclohexyl)acetyl)glycyl)piperazin-1-yl)methyl)phenoxy)methyl)benzoate] | 50 |
| COC(=O)c1ccc(COc2ccccc2CN2CCN(C(=O)CNC(=O)CC34CC5CC(C3)CC(C(=O)O)(C5)C4)CC2)cc1 [Compound 1277, (1s,3r,5R,7S)-3-(2-((2-(4-(2-((4-(Methoxycarbonyl)benzyl)oxy)benzyl)piperazin-1-yl)-2-oxoethyl)amino)-2-oxoethyl)adamantane-1-carboxylic acid] | > 2000 |
| COC(=O)c1ccc(COc2ccccc2CN2CCN(C(=O)CNC(=O)CC(C)(C)C(F)(F)F)CC2)cc1 [Compound 1278, Methyl 4-((2-((4-((4,4,4-trifluoro-3,3-dimethylbutanoyl)glycyl)piperazin-1-yl)methyl)phenoxy)methyl)benzoate] | > 2000 |
| COC(=O)c1ccc(COc2ccccc2CN2CCN(C(=O)CNC(=O)CC(C)(C)c3ccccc3)CC2)cc1 [Compound 1279] | 1500 |
| COC(=O)c1ccc(COc2ccccc2CN2CCN(C(=O)CNC(=O)C3CCC(F)(F)CC3)CC2)cc1 [Compound 1298] | 1500 |
| CC(=O)N1CCC(COc2ccc(Cl)cc2CN2CCN(C(=O)CNC(=O)CC34CC5CC(CC(C5)C3)C4)CC2)CC1 [Compound 1301, N-(2-(4-(2-((1-acetylpiperidin-4-yl)methoxy)-5-chlorobenzyl)piperazin-1-yl)-2-oxoethyl)-2-((3r,5r,7r)-adamantan-1-yl)acetamide] | 400 |
| COC(=O)COc1ccc(Cl)cc1CN1CCN(C(=O)CNC(=O)CC23CC4CC(CC(C4)C2)C3)CC1 [Compound 1302, Methyl 2-(2-((4-((2-((1R,3R,5S)-adamantan-1-yl)acetyl)glycyl)piperazin-1-yl)methyl)-4-chlorophenoxy)acetate] | > 2000 |
| COC(=O)CCCOc1ccc(Cl)cc1CN1CCN(C(=O)CNC(=O)CC23CC4CC(CC(C4)C2)C3)CC1 [Compound 1303, Methyl 4-(2-((4-((2-((1R,3R,5S)-Adamantan-1-yl)acetyl)glycyl)piperazin-1-yl)methyl)-4-chlorophenoxy)butanoate] | ~2000 |
| Nc1ncc(Cl)cc1CN1CCN(C(=O)CNC(=O)CC23CC4CC(CC(C4)C2)C3)CC1 [Compound 1304, 2-((1R,3R,5S)-Adamantan-1-yl)-N-(2-(4-((2-amino-5-chloropyridin-3-yl)methyl)piperazin-1-yl)-2-oxoethyl)acetamide] | > 1500 |
| O=C(CC12CC3CC(CC(C3)C1)C2)NCC(=O)N1CCN(Cc2cc(Cl)ccc2F)CC1 [Compound 1305, 2-((1R,3R,5S)-Adamantan-1-yl)-N-(2-(4-(5-chloro-2-fluorobenzyl)piperazin-1-yl)-2-oxoethyl)acetamide] | 360 |
